This note sets out measurements from patent US10010560B2, “Small molecule HSP70 inhibitors” (THE TRUSTEES OF THE UNIVERSITY OF PENNSYLVANIA, priority 2014, dated 2018).

Assay [1] has as its system tumor cells. The experiment in a line: Electron microscopy analysis of treated tumor cells. The format is cell-based. An excerpt: (§1) FIGS. 4A-4L illustrate that PET-16 impairs proteostasis. […] There is a general absence of obvious nuclei in PET-16 treated tumor cells. […] FIGS. 4D and 4E are gels of whole-cell extracts (WCE) prepared from human melanoma A875 (D) or 451 Lu (E) cells treated with DMSO, PES or PET-16 that were immunoprecipitated using an anti-HSP70 antibody. The excised band of about 70 kDa shown in the Coomassie gel is HSP70, as confirmed by liquid chromatography—tandem mass spectrometry analysis. FIGS. 4F-4I are western blots of cell lines were treated with DMSO, PES or PET-16 for 24 h and immunoblotted for the indicated proteins. FIG. 4J are western blots of indicated melanomas pretreated with DMSO, PES or PET-16, followed by treatment with IL-6. Cell extracts were immunoblotted for the proteins indicated. Inhibition of IL-6 induced STAT3 and STAT1 phosphorylation by PET-16. FIG. 4K is a western blot analysis indicating altered processing of cathepsin L from the larger precursor form to the smaller mature form in the indicated cells following PET-16 treatment for 24 h. FIG. 4L is a western blot of the human melanoma 451 Lu cells treated with DMSO, PES or PET-16 for 24 h. Cells were harvested in 1% NP40-containing lysis buffer, fractionated into detergent-soluble and detergent-insoluble preparations, and assayed by western blot for ubiquitin. […]

In assay [2] the test system is LC3. The experiment in a line: Western blot for autophagy marker LC3. The format is cell-based, human. Conditions: A875 melanoma cell line.
Description: as §1

The subject of assay [3] is ubiquitin. The assay is described as follows: Western blot for ubiquitin in detergent fractions. The format is cell-based, human. The following applies: 451 Lu cells, 24 h, detergent insoluble fraction.
Description: as §1

For assay [4], the target named is T1, full-length, nucleotide-free HSP70 protein (Homo sapiens, UniProt P0DMV8, E110D).
T1 construct: Full-length recombinant proteins of HSP70 (aa 1-641) as well as DnaK (aa 1-638); His6 (N); made in house; host or cells: E. coli BL21 Star (DE3)
T1 sequence (P0DMV8 whole entry E110D, the tested form may be a part): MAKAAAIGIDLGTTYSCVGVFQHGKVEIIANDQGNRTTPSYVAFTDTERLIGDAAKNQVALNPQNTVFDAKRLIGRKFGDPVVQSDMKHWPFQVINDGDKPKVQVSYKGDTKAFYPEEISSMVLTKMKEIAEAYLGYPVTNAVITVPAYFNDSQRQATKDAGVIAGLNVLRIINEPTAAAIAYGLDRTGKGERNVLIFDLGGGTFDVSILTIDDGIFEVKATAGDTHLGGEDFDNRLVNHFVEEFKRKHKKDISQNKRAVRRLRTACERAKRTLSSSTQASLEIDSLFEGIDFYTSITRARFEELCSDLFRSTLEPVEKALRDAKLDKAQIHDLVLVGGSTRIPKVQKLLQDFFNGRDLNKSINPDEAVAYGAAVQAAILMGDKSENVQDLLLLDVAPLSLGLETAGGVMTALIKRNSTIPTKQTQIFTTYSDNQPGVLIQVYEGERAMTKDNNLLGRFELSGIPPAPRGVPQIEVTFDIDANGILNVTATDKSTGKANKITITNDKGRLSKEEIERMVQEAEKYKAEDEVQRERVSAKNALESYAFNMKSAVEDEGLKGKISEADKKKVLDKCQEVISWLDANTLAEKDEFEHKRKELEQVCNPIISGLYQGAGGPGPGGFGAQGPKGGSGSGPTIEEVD
The assay is described as follows: ITC binding to nucleotide-free full-length HSP70. The following applies: average and s.d. of two experiments, read-out: dissociation constant. An excerpt: FIGS. 3A-3L illustrate that PET-16 binds directly to ADP-bound HSP70 and DnaK. Specifically, FIGS. 3A-3H are isothermal calorimetric titration (ITC) assays of the indicated compounds (NRLLLTG—SEQ ID NO: 7, PES or PET-16) with purified HSP70-ADP, DnaK-ADP or HSP70-ATP proteins. The data are representative of three independent experiments. FIGS. 3I and 3J are ITC assays for the interaction between HSP70 (aa 386-616 of SEQ ID NO: 2) protein and PET-16 (I) or TPP (J). Binding constants (Kd values) are shown (average and s.d. from three independent experiments). PET-16 also binds directly to the purified, full-length, nucleotide-free HSP70 protein, with a reported dissociation constant of 5.2+/−0.1 micromolar, which is the average and standard deviation from two independent experiments (data not shown). FIG. 3K is ITC assay of HSP70 protein preincubated with ADP and PES for 1 h. The mixture was titrated into the sample cell containing PET-16. The data are representative of three independent ITC experiments. FIG. 3L are western blots of human lung carcinoma (H1299) cells that were pretreated with DMSO or excess (8×) PET-16 for 1 h prior to the addition of 20 μM B-PES for 5 h and examined for the expression of HSP70 or BCL-xL. B-PES-containing complexes were captured by Avidin resins and immunoblotted either with anti-HSP70 or anti-BCL-xL antibody. […]

pKd: −log10 of the molar value.

As for `C(#C[P+](c1ccccc1)(c1ccccc1)c1ccccc1)c1ccccc1.[Br-]` [PET-16, triphenyl(phenylethynyl)phosphonium bromide], the “autophagy and proteostasis by EM” value in assay [1] was “altered autophagy and impaired proteostasis”. Further, in assay [2], the “autophagy marker processed LC3II” value is “increase”. Besides, in assay [3], the ubiquitinated polypeptides result is recorded as “accumulation”. Moreover, in assay [4], the pKd is 5.28.
